Assay results: patent US20040023884A1, “Biologically active peptides from functional domains of bactericidal/permeability-increasing protein and uses thereof” (priority 1993, published 2004)
Ends that are not written are not given here.

Experiments:
[1] = tested on: rough mutant E. coli J5 bacteria; test: Radial diffusion bactericidal assay, E. coli J5; type: cell-based; details: for pmol added to well to achieve a 30 mm^2 bactericidal zone, E. coli J5: radial diffusion, PROBIT analysis, E. coli J5 (rough)
Procedure, shortened: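 Log-phase bacteria, washed in 10 mM sodium phosphate pH 7.4, were seeded at 4×10^6 CFU/mL in underlayer agarose. BPI fragments (5 or 10 μL) went into 3 mm wells for 3 h at 37° C., then overlayer agarose was added. After overnight 37° C. incubation, clearing zones were measured by micrometer.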

[2] = 3H-heparin binding assay (affinity and capacity); details: for Heparin Capacity: heparin bound at saturation; for Kd: read-out: Heparin Affinity; for cpm ^3H-Heparin bound: 100 picomoles of each fragment per well, saturating 3H-heparin 20 μg/mL, mean of duplicate wells ± range
Procedure, shortened: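 Bound 3H-heparin was counted by liquid scintillation after 1 h incubation at 4 °C with fragments immobilised on PVDF-bottomed wells, then washing in blocking buffer. Signal was corrected for BSA-related background, and varying amounts of rBPI23 were used as positive control.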

E. coli 0113 LPS = test: Limulus Amoebocyte Lysate (LAL) inhibition assay; type: biochemical
Procedure: BPI proteolytic fragments produced according to Example 1 were subjected to a Limulus Amoebocyte Lysate (LAL) inhibition assay to determine LPS binding properties of these fragments. Specifically, each of the fragments were mixed in Eppendorf tubes with a fixed concentration of E. coli 0113 LPS (4 ng/mL final concentration) and incubated at 37° C. for 3 hours with occasional shaking. Addition controls comprising rBPI23 at 0.05 μg/mL were also tested. Following incubation, 360 μL of Dulbecco's phosphate buffered saline (D-PBS; Grand Island Biological Co. (GIBCO), Long Island, N.Y.) were added per tube to obtain an LPS concentration of 200 pg/mL for the LAL assay. Each sample was then transferred into Immulon II strips (Dynatech, Chantilly, Va.) in volumes of 50 μl per well.
Limulus amoebocyte Lysate (Quantitative Chromogenic LAL kit, Whitaker Bioproducts, Inc., Walkersville, Md.) was added at 50 μL per well and the wells were incubated at room temperature for 25 minutes. Chromogenic substrate was then added at a volume of 100 μL per well and was well mixed. After incubation for 20 to 30 minutes at room temperature, the reaction was stopped with addition of 100 μL of 25% (v/v) acetic acid. Optical density at 405 nm was then measured in a multiplate reader (Model Vmax, […], Menlo Park, Calif.) with the results shown in FIG. 2 in terms of percent inhibition of LPS. In this Figure, the filled circle represents rBPI23; the open circle represents Asp-N fragment A3; the x represents Asp-N fragment A2, the filled square represents Asp-N fragment A4; the filled triangle represents Asp-N fragment A1A2; the open square represents Asp-N fragment A6a; the small open triangle represents CNBr fragment C3; and the small filled square represents CNBr fragment C1/C5.

[3] = tested on: E. coli 0111:B4 (smooth) bacteria; test: Radial diffusion bactericidal assay, E. coli 0111:B4; type: cell-based; details: radial diffusion; PROBIT analysis; E. coli O111:B4 (smooth)
C. albicans = test: Radial diffusion fungicidal assay, Candida albicans; type: cell-based; details: radial diffusion
Candida albicans = type: cell-based
[4] = alanine variant relative to BPI.13
[5] = alanine variant relative to BPI.2

| Substance | pmol added to well to achieve a 30 mm^2 bactericidal zone, E. coli J5 [1] | Heparin Capacity [2] | Kd [2] | pmol added to well to achieve a 30 mm^2 bactericidal zone, E. coli O111:B4 [3] | LAL (relative difference) (E. coli 0113 LPS; [5]) | other results |
| --- | --- | --- | --- | --- | --- | --- |
| KSKVAWLIQLFHKK [BPI.35] | 263.00 pmol | 406.0 ng | 1.08 µM | b (no detectable activity up to 5 μg/well) |  | increase of Kd of heparin binding and heparin capacity ([2]; vs unsubstituted peptide): 10%; LAL (relative difference) (E. coli 0113 LPS; [4]): = (no difference in the LAL assay); C. albicans: pmol required for 30 mm^2 zone (C. albicans): 441.79 pmol; MIC C. alb (Candida albicans): 3.13 mg/L |
| IKIAGKWKAQKRFLK [BPI.18] | 7,128.50 pmol | 156.6 ng | 0.381 µM | b (no detectable activity up to 5 μg/well) | = (no difference in the LAL assay) |  |
| IKISGKAKAQKRFLK [BPI.21] | 27,647.60 pmol | 50.9 ng | 0.231 µM | b (no detectable activity up to 5 μg/well) |  | fold reduction in bactericidal activity in the radial diffusion assay ([1]; alanine variant vs unsubstituted peptide): more than 10 fold; heparin binding capacity, fold lower than the unsubstituted peptide [2]: 4 fold; LAL / LPS inhibition activity (in words) (E. coli 0113 LPS): large decrease in activity |
| IKISGKWKAQKRFAK [BPI.27] | 5,754.40 pmol | 119.8 ng | 0.204 µM | b (no detectable activity up to 5 μg/well) | = (no difference in the LAL assay) |  |
| A4: Asp-N fragment of rBPI23, residues 57-104 (DIREFQLPSSQISMVPNVGLKFSISNANIKISGKWKAQKRFLKMSGNF; UniProt P17213 88-135, looked up, fragment) |  |  |  |  |  | cpm ^3H-Heparin bound [2]: 33,159 ± 1.095 cpm; amount required to inhibit the LAL assay, fold higher than 116-193 fragment / rBPI23 (E. coli 0113 LPS): 10 fold |
| KSKVGWLIQLFHKA [BPI.44] | 480.80 pmol | 335.6 ng | 0.579 µM |  |  | LAL (relative difference) (E. coli 0113 LPS; [4]): = (no difference in the LAL assay); C. albicans: pmol required for 30 mm^2 zone (C. albicans): 577.65 pmol; MIC C. alb (Candida albicans): 6.25 mg/L; MIC (x Fold change in fungicidal activity) (Candida albicans; [4]): = |
| IKASGKWKAQKRFLK [BPI.17] | 15,836.70 pmol | 113.1 ng | 0.267 µM | b (no detectable activity up to 5 μg/well) | ↓ (moderate) | LAL / LPS inhibition activity (in words) (E. coli 0113 LPS): moderate |
| IKISGKWKAQKRALK [BPI.26] | 8,709.60 pmol | 113.1 ng | 0.231 µM | b (no detectable activity up to 5 μg/well) | = (no difference in the LAL assay) |  |
| A1: Asp-N fragment of rBPI23, region 1-38 as printed in Table II (A1 A2 in Table I) (VNPGVVVRISQKGLDYASQQGTAALQKELKRIKIPDYS; Asp-N fragment; UniProt P17213 32-69, looked up, fragment) |  |  |  |  |  | cpm ^3H-Heparin bound [2]: 17,002 ± 479 cpm; amount required to inhibit the LAL assay, fold higher than 116-193 fragment / rBPI23 (E. coli 0113 LPS): 10 fold |
| IKISGAWKAQKRFLK [BPI.20] | 3,451.40 pmol | 203.6 ng | 0.485 µM | b (no detectable activity up to 5 μg/well) | = (no difference in the LAL assay) | HEPCAP (x Fold change in activity) ([2]; heparin binding capacity, relative to BPI.2): =1.0 x Fold |
